Laboratory results reported in patent publication US11052092B2, “N-{[2-(piperidin-1-yl)phenyl](phenyl)methyl}-2-(3-oxo-3,4-dihydro-2H-1,4-benzoxazin-7-yl)acetamide derivatives and related compounds as ROR-gamma modulators for treating autoimmune diseases” (Genfit, priority 2017, dated 2021).

Experiments:
[1] = system: Murine EL-4 lymphoma cell line overexpressing human RORγt; assay: IL-17 secretion from EL4 murine lymphoma; type: cell-based; conditions: Mus musculus; human RORγt-transfected EL4 cells, PMA (10 ng/mL) and ionomycin (1 μM), 24 h; read-out: IC50, IL-17 secretion inhibition
Outline: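 EL-4 cells electroporated with hRORγt plasmid, seeded at 150000 cells/well and pretreated with compound for 24 h, then stimulated with PMA (10 ng/mL) plus ionomycin (1 μM final) with compound for a further 24 h at 37 °C. IL-17 in supernatant measured by HTRF or ELISA.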

MOG-induced EAE mice = assay: Experimental Autoimmune Encephalomyelitis (EAE) study; type: in vivo, C57BL/6 mice
Description: 8-10 week old, female C57BL/6 mice were purchased from Janvier Lab (St Berthevin, France) and housed for one week before the start of the studies. EAE was induced by immunization with an emulsion of peptide antigen MOG35-55 (Myelin Oligodendrocyte Glycoprotein) ([…], SEQ ID NO: 1) in complete Freund's Adjuvant (CFA), followed by administration of Pertussis Toxin (PTX) in PBS on the day of immunization and day 1 post immunization, following manufacturer recommendation (Hooke, Kit MOG35-55/CFA Emulsion PTX). Animals were treated with drug beginning 2 days before peptide injection. Animals were randomized into groups for treatment by weight, so that the average weight of each group was similar. The groups were segregated by cage. Compounds according to the invention were suspended in Labrafil (M1944 CS) by sonication and animals were dosed twice daily by gavage with 5 mL/kg body weight. The daily doses of Cpd.24 were 30 and 60 mg/kg (b.i.d.) by gavage. […]
Data are expressed as (FIG. 4A) mean (+/−SEM) of clinical score for each group per day and (FIG. 4B). […]
Statistical evaluation of differences between the experimental groups was determined by using two-way Anova followed by a Bonferroni post test. **p<0.005, Vehicle compared with treatments.

[2] = system: IMQ induced psoriasis in mice; assay: Imiquimod (IMQ) induced psoriasis study, cumulative clinical score; type: in vivo, C57BL/6 female mice
Experimental: 8-10 weeks C57BL/6 female mice received a daily topical dose of 62.5 mg/mouse IMQ cream (Aldara® cream 5%; 3M pharmaceuticals, Sweden) on the shaved back and the right ear for 7 consecutive days. Control mice were treated similarly with a control vehicle cream (Vaseline). Test compound (Cpd 24) was orally administered daily from day 0 to day 7 at 3 mg/mL (30 mg/kg). Test compound was given 8 hours before IMQ application. Mice were killed at day 7, 4 h after the last test compound treatment to analyse skin inflammation parameters.
The severity of inflammation of the back skin was determined using the following criteria. An objective scoring system was developed based on the clinical Psoriasis Area and Severity Index (PASI), except that for the mouse model the affected skin area is not taken into account in the overall score. Erythema, scaling, and thickening were scored independently on a scale from 0 to 4: 0: none; 1: slight; 2: moderate; 3: marked; 4: severe. The cumulative score (erythema plus scaling plus thickening) served as a measure of the severity of inflammation (scale 0-12).
Statistical evaluation of differences between the experimental groups was determined by using two-way Anova followed by a Bonferroni post test. *** p<0.001, IMQ-Vehicle compared with treatment.

Cc1ccc(C(NC(=O)Cc2ccc3c(c2)CC(=O)N3)c2ccc(C)o2)c(N2CCCCC2)c1 (centres unmarked) [Cpd. 24, N-{[4-methyl-2-(piperidin-1-yl)phenyl](5-methylfuran-2-yl)methyl}-2-(2-oxo-2,3-dihydro-1H-indol-5-yl)acetamide]
IC50 [1]: < 100 nM
clinical disease score (MOG-induced EAE mice; by day 15 and maintained through in vivo protocol duration): Clinical disease score improvement was apparent
onset of EAE (MOG-induced EAE mice; p/os at 60 mg/kg (b.i.d.) for 20 days): delay the onset of EAE
adverse effect ([2]; after test compound administration, 30 mg/kg orally daily day 0 to day 7): no adverse effect was observed
cumulative score (erythema plus scaling plus thickening) ([2]; orally 30 mpk, day 5, compared to control treatment): significant decrease
